SMILES strings stand for the structures.

What all share (settings): crystal
Series [1] can be described thus: stability of the crystals against heat or light. It counts as physicochemical.
Series [2] is described as follows: pharmacokinetics of the crystals (BA, Cmax, Tmax). It is filed as in vivo.
Series [3] is described as follows: solubility of the crystals in water or saline. It is filed as physicochemical.

In the case of `C[C@@H]1CCO[C@H]2Cn3cc(C(=O)NCc4ccc(F)cc4F)c(=O)c(O)c3C(=O)N12` [Compound 13], the “stability against heat or light” value in series [1] is on record as “high”. Further, in series [2], the “bioavailability (BA)” value is “high”, the “maximum drug concentration (Cmax)” value is listed as “high” and the “maximum drug concentration time (Tmax)” value is reported as “short”. Moreover, the “solubility in water or saline” value in series [3] is “high”.

For the origin of these results see patent US9365587B2, “Synthesis of carbamoylpyridone HIV integrase inhibitors and intermediates” (Shionogi & Co., Ltd., priority 2008, dated 2016).
